# Measurements: patent publication US7803930B2, “Antisense modulation of apolipoprotein B-expression” (Isis Pharmaceuticals, Inc., priority 2002, dated 2010)
# In the oligonucleotide strings, read from the 5' end, every base follows the letter of its sugar. An asterisk marks phosphorothioate; unmarked linkages are phosphodiester. Other units and linkages are bracketed, terminal groups are in braces. A string of capitals states the bases alone. e = 2'-O-(2-methoxyethyl) (MOE); [5mC] = 5-methylcytosine; d = 2'-deoxy (DNA)
# Tests used:
# apolipoprotein B protein = test: Apolipoprotein B protein secreted from primary Cynomolgous monkey hepatocytes, ELISA; type: cell-based; details: for % Reduction of monkey apolipoprotein B protein secretion / secretion of apolipoprotein B protein (ELISA): primary Cynomolgous hepatocytes; for % Reduction in secreted apolipoprotein B protein: primary Cynomolgous monkey hepatocytes;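 as to % Reduction in secreted apolipoprotein B protein: normalized to untreated control cells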
# Summary of the method: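 Primary cynomolgus hepatocytes treated with oligonucleotide at 150 and 300 nM, or 50 and 150 nM for some compounds; secreted apoB protein quantified by apoB-specific ELISA. Values are means of 3 experiments.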
# [1] = tested on: Cynomolgous monkey apolipoprotein B mRNA; test: Apolipoprotein B mRNA in primary Cynomolgous monkey hepatocytes, real-time PCR; type: cell-based; details: for % Inhibition of apolipoprotein B mRNA: primary Cynomolgous monkey hepatocytes
# Summary of the method: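 Primary cynomolgus hepatocytes treated with antisense oligonucleotides at 10, 50, 150 or 300 nM (some sets 10–150 nM) for 24 or 48 h, depending on the set. mRNA quantified by real-time PCR using human apoB and GAPDH primers/probes. Values are percent inhibition normalized to untreated cells, averaged over 2–6 experiments.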
# [2] = tested on: human apolipoprotein(a) mRNA; test: Apolipoprotein(a) mRNA expression in primary human hepatocytes, real-time PCR; type: cell-based; details: 24 hours; for % Change in apolipoprotein(a) mRNA expression following antisense inhibition of apolipoprotein B: primary human hepatocytes; for expression of apolipoprotein(a) mRNA: human primary hepatocytes, 5, 10, 50 or 150 nM
# Method: Primary human hepatocytes (InVitro Technologies, Baltimore, Md.), cultured and transfected as described herein, were treated with 5, 10, 50 or 150 nM of ISIS 271009 (SEQ ID NO: 319), 281625 (SEQ ID NO: 224), 301012 (SEQ ID NO: 247) or 301027 (SEQ ID NO: 262). Cells were also treated with 50 or 150 nM of the control oligonucleotides ISIS 113529 (SEQ ID NO: 859) or ISIS 13650 (SEQ ID NO: 806). Untreated cells served as a control. Following 24 hours of oligonucleotide treatment, apolipoprotein(a) mRNA expression was measured by quantitative real-time PCR as described in other examples herein.
# Probes and primers to human apolipoprotein(a) were designed to hybridize to a human apolipoprotein(a) sequence, using published sequence information (GenBank accession number NM_005577.1, incorporated herein as SEQ ID NO: 860). For human apolipoprotein(a) the PCR primers were: […]
# forward primer: […] (SEQ ID NO: 861)
# reverse primer: TGCGTCTGAGCATTGCGT (SEQ ID NO: 862) and the PCR probe was: FAM-[…]-TAMRA (SEQ ID NO: 863) where FAM is the fluorescent dye and TAMRA is the quencher dye.
# Data are the average of three experiments and are expressed as percent inhibition relative to untreated controls.
# [3] = Time course at two doses in female C57BL/6 mice (Example 49): AST and ALT levels; type: in vivo, mouse
# Method: Female C57BL/6 mice were divided into two groups—one group receiving oligonucleotide treatment and control animals receiving saline treatment. After overnight fasting, mice were dosed intraperitoneally twice a week with saline or 25 mg/kg or 50 mg/kg of ISIS 281625 (SEQ ID NO: 224), ISIS 301012 (SEQ ID NO: 247), or ISIS 301027 (SEQ ID NO: 262). After 2 weeks, a blood sample was taken from the tail of the mice and evaluated for liver enzyme. After 4 weeks, and study termination, animals were sacrificed and evaluated for liver enzyme levels.
# [4] = 150 nM (Table 49), "+" = secretion increased
# [5] = 50 nM (Table 49), "+" = secretion increased
# [6] = 25 mg/kg i.p. twice a week, 2 weeks
# [7] = 25 mg/kg i.p. twice a week, 4 weeks
# [8] = 50 mg/kg i.p. twice a week, 2 weeks
# [9] = 50 mg/kg i.p. twice a week, 4 weeks
# [10] = 25 or 50 mg/kg (either dose) i.p. twice a week, after 2 weeks
# [11] = higher dose (50 mg/kg), after 4 weeks
# [12] = lower dose (25 mg/kg), after 4 weeks
Substance,% Reduction of monkey apolipoprotein B protein secretion (apolipoprotein B protein; [4]),"% Inhibition of apolipoprotein B mRNA ([1]; 150 nM, 24 hours (Table 48))",% Change in apolipoprotein(a) mRNA expression following antisense inhibition of apolipoprotein B ([2]; 50 nM),% Change in apolipoprotein(a) mRNA expression following antisense inhibition of apolipoprotein B ([2]; 150 nM),% Change in apolipoprotein(a) mRNA expression following antisense inhibition of apolipoprotein B ([2]; 5 nM),% Change in apolipoprotein(a) mRNA expression following antisense inhibition of apolipoprotein B ([2]; 10 nM),"ALT [3, 6]","AST [3, 6]","ALT [3, 7]","AST [3, 7]","ALT [3, 8]","AST [3, 8]","ALT [3, 9]","AST [3, 9]",expression of apolipoprotein(a) mRNA [2],"AST and ALT levels [3, 10]",further results
113529 (antisense e[5mC]*eT*e[5mC]*eT*eT*dA*d[5mC]*dT*dG*dT*dG*d[5mC]*dT*dG*dT*eG*eG*eA*e[5mC]*eA) [compound 113529],15%,11%,+14%,−9%,–,–,–,–,–,–,–,–,–,–,–,–,"% Reduction of monkey apolipoprotein B protein secretion (apolipoprotein B protein; 150 nM (Table 47)): 12%; % Reduction in secreted apolipoprotein B protein (apolipoprotein B protein; 150 nM, 24 hours): 11%; % Reduction in secreted apolipoprotein B protein (apolipoprotein B protein; 150 nM, 48 hours): 18%; % Reduction in secreted apolipoprotein B protein (apolipoprotein B protein; 300 nM, 24 hours): 12%; % Reduction in secreted apolipoprotein B protein (apolipoprotein B protein; 300 nM, 48 hours): 8%; % Inhibition of apolipoprotein B mRNA ([1]; 150 nM, 24 hours): 5%; % Inhibition of apolipoprotein B mRNA ([1]; 150 nM, 48 hours): 42%; % Inhibition of apolipoprotein B mRNA ([1]; 300 nM, 24 hours): 19%; % Inhibition of apolipoprotein B mRNA ([1]; 300 nM, 24 hours (Table 46)): 28%; % Inhibition of apolipoprotein B mRNA ([1]; 300 nM, 48 hours): 13%"
271009 (antisense eG*e[5mC]*e[5mC]*eT*e[5mC]*dA*dG*dT*d[5mC]*dT*dG*d[5mC]*dT*dT*d[5mC]*eG*e[5mC]*eG*e[5mC]*e[5mC]) [compound 271009],26%,69%,+25%,−47%,+70%,+31%,–,–,–,–,–,–,–,–,–,–,"% Reduction of monkey apolipoprotein B protein secretion (apolipoprotein B protein; [5]): +30%; % Inhibition of apolipoprotein B mRNA ([1]; 10 nM, 24 hours (Table 48)): 42%; % Inhibition of apolipoprotein B mRNA ([1]; 50 nM, 24 hours (Table 48)): 66%"
281625 (antisense eA*eG*eG*eT*eT*dA*d[5mC]*d[5mC]*dA*dG*d[5mC]*d[5mC]*dA*d[5mC]*dA*eT*eG*e[5mC]*eA*eG) [compound 281625],–,–,−34%,+32%,−9%,−23%,21.2 IU/L,40.8 IU/L,31.8 IU/L,75 IU/L,30.8 IU/L,44.4 IU/L,210.4 IU/L,152.4 IU/L,–,–,"% Reduction of monkey apolipoprotein B protein secretion (apolipoprotein B protein; 50 nM (Table 47)): 6%; % Reduction of monkey apolipoprotein B protein secretion (apolipoprotein B protein; 150 nM (Table 47)): 13%; % Inhibition of apolipoprotein B mRNA ([1]; 10 nM, 24 hours (Table 46), ""+"" = expression increased): +5%; % Inhibition of apolipoprotein B mRNA ([1]; 50 nM, 24 hours (Table 46)): 41%; % Inhibition of apolipoprotein B mRNA ([1]; 150 nM, 24 hours (Table 46), ""+"" = expression increased): 35%; % Inhibition of apolipoprotein B mRNA ([1]; 300 nM, 24 hours (Table 46)): 69%"
301012 (eG*e[5mC]*e[5mC]*eT*e[5mC]*dA*dG*dT*d[5mC]*dT*dG*d[5mC]*dT*dT*d[5mC]*eG*e[5mC]*eA*e[5mC]*e[5mC]) [compound 301012],–,–,+30%,+38%,+34%,+86%,22.4 IU/L,37.2 IU/L,24.8 IU/L,89.8 IU/L,23.2 IU/L,38.4 IU/L,29.2 IU/L,107.4 IU/L,–,–,"% Reduction in secreted apolipoprotein B protein (apolipoprotein B protein; 150 nM, 24 hours): 31%; % Reduction in secreted apolipoprotein B protein (apolipoprotein B protein; 150 nM, 48 hours): 25%; % Reduction in secreted apolipoprotein B protein (apolipoprotein B protein; 300 nM, 24 hours): 10%; % Reduction in secreted apolipoprotein B protein (apolipoprotein B protein; 300 nM, 48 hours): 17%; % Inhibition of apolipoprotein B mRNA ([1]; 10 nM, 24 hours): 24%; % Inhibition of apolipoprotein B mRNA ([1]; 10 nM, 48 hours): 76%; % Inhibition of apolipoprotein B mRNA ([1]; 50 nM, 24 hours): 60%; % Inhibition of apolipoprotein B mRNA ([1]; 50 nM, 48 hours): 77%; % Inhibition of apolipoprotein B mRNA ([1]; 150 nM, 24 hours): 56%; % Inhibition of apolipoprotein B mRNA ([1]; 150 nM, 48 hours): 88%; % Inhibition of apolipoprotein B mRNA ([1]; 300 nM, 24 hours): 61%; % Inhibition of apolipoprotein B mRNA ([1]; 300 nM, 48 hours): 86%"
301027 (eG*e[5mC]*eT*e[5mC]*eA*d[5mC]*dT*dG*dT*dA*dT*dG*dG*dT*dT*eT*eT*eA*eT*e[5mC]; antisense) [compound 301027],31%,67%,−39%,−43%,−16%,−45%,27.2 IU/L,55.4 IU/L,311.2 IU/L,537.6 IU/L,34.8 IU/L,64 IU/L,1194 IU/L,1884 IU/L,–,–,"% Reduction of monkey apolipoprotein B protein secretion (apolipoprotein B protein; [5]): 25%; % Inhibition of apolipoprotein B mRNA ([1]; 10 nM, 24 hours (Table 48)): 40%; % Inhibition of apolipoprotein B mRNA ([1]; 50 nM, 24 hours (Table 48)): 54%"
"ISIS 281625: SEQ ID NO: 224, 2′-MOE gapmer targeted to human apolipoprotein B (antisense eA*eG*eG*eT*eT*dA*d[5mC]*d[5mC]*dA*dG*d[5mC]*d[5mC]*dA*d[5mC]*dA*eT*eG*e[5mC]*eA*eG)",–,–,–,–,–,–,–,–,–,–,–,–,–,–,decreased,remained close to those of saline,"secretion of apolipoprotein B protein (ELISA) (apolipoprotein B protein; 50 and 150 nM (statement after Table 49)): decrease; inhibition of apolipoprotein B mRNA expression ([1]; Cynomolgous monkey primary hepatocytes, 10, 50, 150 or 300 nM, 24 hours): in a dose-dependent manner; AST and ALT levels over saline treated animals [3, 11]: large increase; AST and ALT levels over saline treated animals [3, 12]: moderate increase"
"ISIS 301012: SEQ ID NO: 247, antisense oligonucleotide targeted to human apolipoprotein B (antisense GCCTCAGTCTGCTTCGCACC; chemistry not given here)",–,–,–,–,–,–,–,–,–,–,–,–,–,–,did not inhibit,remained close to those of saline,"secretion of apolipoprotein B protein (ELISA) (apolipoprotein B protein; 150 and 300 nM): decrease; inhibition of apolipoprotein B mRNA expression ([1]; cynomolgous monkey primary hepatocytes, 10, 50, 150 or 300 nM): in a dose- and time-dependent manner; AST and ALT levels over saline treated animals [3, 11]: large increase; AST and ALT levels over saline treated animals [3, 12]: moderate increase"
"ISIS 301027: SEQ ID NO: 262, 2′-MOE gapmer targeted to human apolipoprotein B (antisense eG*e[5mC]*eT*e[5mC]*eA*d[5mC]*dT*dG*dT*dA*dT*dG*dG*dT*dT*eT*eT*eA*eT*e[5mC])",–,–,–,–,–,–,–,–,–,–,–,–,–,–,decreased,small increase,"inhibition of apolipoprotein B mRNA expression ([1]; Cynomolgous monkey primary hepatocytes, 10, 50 and 150 nM, 24 hours): in a dose-dependent manner; AST and ALT levels ([3]; either dose, after 4 weeks): huge increase"
